Blank lines part the entries; values can stand above or below the molecule they belong to. Activity calls are given as the source filed them. The calls are words filed in the database; no cut-off is given here.
Assays:
RAW264.7 [1] = assay: Inhibition of LPS-induced TNFalpha production in mouse RAW264.7 cells preincubated for 2 hrs followed by LPS treatment for 24 hrs by RT-qPCR analysis; type: functional, cell-based
RAW264.7 [2] = assay: Inhibition of LPS-induced TNFalpha production in mouse RAW264.7 cells at 50 uM preincubated for 2 hrs followed by LPS treatment for 24 hrs by RT-qPCR analysis relative to control; type: functional; conditions: time 26 hrs
Peritoneal macrophage = assay: Inhibition of LPS-induced TNFalpha production in mouse peritoneal macrophage at 2.6 uM incubated overnight by immunoassay relative to control; type: functional
Mus musculus [3] = assay: Anti-ulcerative colitis activity in IL-10-/- C57BL/6 mouse model of ulcerative colitis assessed as histopathological score recovery ratio at 50 mg/kg, IG via gavage for 8 weeks relative to control; type: functional
Mus musculus [4] = assay: Anti-ulcerative colitis activity against DSS-induced ulcerative colitis C57BL/6 mouse model assessed as body weight recovery rate at 50 mg/kg, IG via gavage administered for 7 days and measured everyday relative to control; type: functional; conditions: time 7 day
Mus musculus [5] = assay: Antiinflammatory activity against IL-10-/- C57BL/6 mouse model of ulcerative colitis assessed as inhibition ratio of IL-23 mRNA expression in colon tissue at 50 mg/kg, IG via gavage and measured after 8 weeks by RT-qPCR analysis relative to control; type: functional; set-up: scale not given: the % may be the effect or the level left
Mus musculus [6] = assay: Anti-ulcerative colitis activity in DSS-induced C57BL/6 mouse ulcerative colitis model assessed as histopathological score recovery ratio at 50 mg/kg, IG via gavage measured after 7 days by H and E staining method relative to control; type: functional; conditions: time 7 day
Mus musculus [7] = assay: Antiinflammatory activity against IL-10-/- C57BL/6 mouse model of ulcerative colitis assessed as inhibition ratio of IL-6 mRNA expression in colon tissue at 50 mg/kg, IG via gavage and measured after 8 weeks by RT-qPCR analysis relative to control; type: functional; set-up: scale not given: the % may be the effect or the level left
Mus musculus [8] = assay: Anti-ulcerative colitis activity against DSS-induced ulcerative colitis C57BL/6 mouse model assessed as reduction in DAI recovery score ratio at 50 mg/kg, IG via gavage administered for 7 days and measured everyday relative to control; type: functional; set-up: scale not given: the % may be the effect or the level left; conditions: time 7 day
Mus musculus [9] = assay: Antiinflammatory activity against DSS-induced C57BL/6 mouse model of acute ulcerative colitis assessed as inhibition ratio of IL-6 protein expression at 50 mg/kg, IG via gavage measured after 7 days by ELISA relative to control; type: functional; set-up: scale not given: the % may be the effect or the level left; conditions: time 7 day
Mus musculus [10] = assay: Anti-ulcerative colitis activity in IL-10-/- C57BL/6 mouse ulcerative colitis model assessed as animal survival at 50 mg/kg, IG via gavage for 8 weeks; type: functional, organism-based
Mus musculus [11] = assay: Antiinflammatory activity against DSS-induced C57BL/6 mouse model of acute ulcerative colitis assessed as inhibition ratio of IL-6 mRNA expression in colon tissue at 50 mg/kg, IG via gavage measured after 7 days by RT-qPCR analysis relative to control; type: functional; set-up: scale not given: the % may be the effect or the level left; conditions: time 7 day
Mus musculus [12] = assay: Antiinflammatory activity against DSS-induced C57BL/6 mouse model of acute ulcerative colitis assessed as inhibition ratio of IL-23 protein expression at 50 mg/kg, IG via gavage measured after 7 days by ELISA relative to control; type: functional; set-up: scale not given: the % may be the effect or the level left; conditions: time 7 day
Mus musculus [13] = assay: Antiinflammatory activity against DSS-induced C57BL/6 mouse model of acute ulcerative colitis assessed as inhibition ratio of IL-1beta protein expression at 50 mg/kg, IG via gavage measured after 7 days by ELISA relative to control; type: functional; set-up: scale not given: the % may be the effect or the level left; conditions: time 7 day
Mus musculus [14] = assay: Antiinflammatory activity against DSS-induced C57BL/6 mouse model of acute ulcerative colitis assessed as inhibition ratio of TNF-alpha mRNA expression in colon tissue at 50 mg/kg, IG via gavage measured after 7 days by RT-qPCR analysis relative to control; type: functional; set-up: scale not given: the % may be the effect or the level left; conditions: time 7 day
Mus musculus [15] = assay: Antiinflammatory activity against IL-10-/- C57BL/6 mouse model of ulcerative colitis assessed as inhibition ratio of IL-6 protein expression at 50 mg/kg, IG via gavage and measured after 8 weeks by ELISA relative to control; type: functional; set-up: scale not given: the % may be the effect or the level left
Mus musculus [16] = assay: Anti-ulcerative colitis activity against DSS-induced ulcerative colitis C57BL/6 mouse model assessed as reduction in DAI score at 50 mg/kg, IG via gavage administered for 7 days and measured everyday (reference value: 4.0); type: functional; conditions: time 7 day
Mus musculus [17] = assay: Antiinflammatory activity against DSS-induced C57BL/6 mouse model of acute ulcerative colitis assessed as inhibition ratio of TNF-alpha protein expression at 50 mg/kg, IG via gavage measured after 7 days by ELISA relative to control; type: functional; set-up: scale not given: the % may be the effect or the level left; conditions: time 7 day
Mus musculus [18] = assay: Antiinflammatory activity against IL-10-/- C57BL/6 mouse model of ulcerative colitis assessed as inhibition ratio of IL-1beta protein expression at 50 mg/kg, IG via gavage and measured after 8 weeks by ELISA relative to control; type: functional; set-up: scale not given: the % may be the effect or the level left
Mus musculus [19] = assay: Antiinflammatory activity against IL-10-/- C57BL/6 mouse model of ulcerative colitis assessed as inhibition ratio of TNF-alpha mRNA expression in colon tissue at 50 mg/kg, IG via gavage and measured after 8 weeks by RT-qPCR analysis relative to control; type: functional; set-up: scale not given: the % may be the effect or the level left
Mus musculus [20] = assay: Antiinflammatory activity against IL-10-/- C57BL/6 mouse model of ulcerative colitis assessed as inhibition ratio of IL-1beta mRNA expression in colon tissue at 50 mg/kg, IG via gavage and measured after 8 weeks by RT-qPCR analysis relative to control; type: functional; set-up: scale not given: the % may be the effect or the level left
Mus musculus [21] = assay: Antiinflammatory activity against IL-10-/- C57BL/6 mouse model of ulcerative colitis assessed as inhibition ratio of IL-23 protein expression at 50 mg/kg, IG via gavage and measured after 8 weeks by ELISA relative to control; type: functional; set-up: scale not given: the % may be the effect or the level left
Mus musculus [22] = assay: Anti-ulcerative colitis activity in DSS-induced C57BL/6 mouse ulcerative colitis model assessed as colon length recovery ratio at 50 mg/kg, IG via gavage measured after 7 days relative to control; type: functional; conditions: time 7 day
Mus musculus [23] = assay: Antiinflammatory activity against IL-10-/- C57BL/6 mouse model of ulcerative colitis assessed as inhibition ratio of TNF-alpha protein expression at 50 mg/kg, IG via gavage and measured after 8 weeks by ELISA relative to control; type: functional; set-up: scale not given: the % may be the effect or the level left
Mus musculus [24] = assay: Anti-ulcerative colitis activity in IL-10-/- C57BL/6 mouse model of ulcerative colitis assessed as colon length recovery ratio at 50 mg/kg, IG via gavage for 8 weeks relative to control; type: functional
Mus musculus [25] = assay: Antiinflammatory activity against DSS-induced C57BL/6 mouse model of acute ulcerative colitis assessed as inhibition of IL-23 mRNA expression in colon tissue administered intragastrically via gavage measured after 7 days by RT-qPCR analysis; type: functional, organism-based; conditions: route ig, time 7.0 day, DDE = dose-dependent effect

- IC50 (RAW264.7 [1]): 48.3 µM
SMILES: COc1cc(OC)c2c(c1)C(=O)CC2c1ccc(C)cc1 (stereo not given)
- inhibition at 50 µM (RAW264.7 [2]): 49.9%

SMILES: COc1cc(OC)c2c(c1)C(=O)CC2c1cccs1 (stereo not given)
- inhibition at 50 µM (RAW264.7 [2]): 5.6%

- IC50 (RAW264.7 [1]): 3.92 µM
SMILES: COc1cc(OC)c2c(c1)C(=O)CC2c1ccc(SC)cc1 (stereo not given)
- inhibition at 50 µM (RAW264.7 [2]): 79.8%

SMILES: COc1cc(OC)c2c(c1)C(=O)CC2c1ccc(OC(F)(F)F)cc1 (stereo not given)
- inhibition at 50 µM (RAW264.7 [2]): 4.4%

- IC50 (RAW264.7 [1]): 43.6 µM
SMILES: Cc1ccc(C2CC(=O)c3cc4c(cc32)OCO4)cc1 (stereo not given)
- inhibition at 50 µM (RAW264.7 [2]): 66.2%

SMILES: O=C1CC(c2ccc(F)cc2)c2cc3c(cc21)OCO3 (stereo not given)
- inhibition at 50 µM (RAW264.7 [2]): 5.3%

- IC50 (RAW264.7 [1]): 47.3 µM
SMILES: COc1cc2c(cc1OC)C(c1ccc(C)cc1)CC2=O (stereo not given)
- inhibition at 50 µM (RAW264.7 [2]): 55.2%

- IC50 (RAW264.7 [1]): 46 µM
SMILES: COc1ccc(C2c3c(OC)cc(OC)cc3C(=O)C2c2cc(OC)cc(OC)c2)cc1 (stereo not given)
- inhibition at 50 µM (RAW264.7 [2]): 62.3%

- IC50 (RAW264.7 [1]): 1.26 µM
SMILES: COc1ccc(C2CC(=O)c3cc(OC)cc(OC)c32)cc1 (stereo not given)
- inhibition at 50 µM (RAW264.7 [2]): 82.6%

SMILES: COc1cc(OC)c2c(c1)C(=O)CC2c1csc2ccccc12 (stereo not given)
- inhibition at 50 µM (RAW264.7 [2]): 5.9%

SMILES: COc1cc(OC)c2c(c1)C(=O)CC2c1ccc(Cl)cc1 (stereo not given)
- inhibition at 50 µM (RAW264.7 [2]): -98.9%

- IC50 (RAW264.7 [1]): 3.52 µM
SMILES: COc1cc(OC)cc(C2CC(=O)c3cc(OC)ccc32)c1 (stereo not given)
- inhibition at 50 µM (RAW264.7 [2]): 0.2%

SMILES: COc1cc(OC)c2c(c1)C(=O)CC2c1ccc2c(c1)OCO2 (stereo not given)
- inhibition at 50 µM (RAW264.7 [2]): 15.5%

SMILES: COc1cc(C2CC(=O)c3cc(OC)c(OC)c(OC)c32)cc(OC)c1OC (stereo not given)
- inhibition at 2.6 µM (Peritoneal macrophage): 55%

- IC50 (RAW264.7 [1]): 4.51 µM
SMILES: COc1cc(OC)c2c(c1)C(=O)CC2c1ccc(OC(C)(F)F)cc1 (stereo not given)
- inhibition at 50 µM (RAW264.7 [2]): 76.5%

SMILES: COc1cc2c(cc1OC)C(c1ccc(F)cc1)CC2=O (stereo not given)
- inhibition at 50 µM (RAW264.7 [2]): 80%

SMILES: COc1ccc2c(c1)C(=O)CC2c1ccc(F)cc1 (stereo not given)
- inhibition at 50 µM (RAW264.7 [2]): 6.5%

- IC50 (RAW264.7 [1]): > 50 µM
SMILES: COc1ccc([C@@H]2CC(=O)c3cc(OC)cc(OC)c32)cc1

SMILES: Nc1ccc(O)c(C(=O)O)c1 [MESALAMINE]
- Activity (Mus musculus [3]): 44.3%
- Activity (Mus musculus [4]): 38.3%
- Activity (Mus musculus [5]): 54.7%
- Activity (Mus musculus [6]): 38.3%
- Activity (Mus musculus [7]): 46.3%
- Activity (Mus musculus [8]): 25%
- Activity (Mus musculus [9]): 53.5%
- Activity (Mus musculus [10]): Active
- Activity (Mus musculus [11]): 46%
- Activity (Mus musculus [12]): 27.5%
- Activity (Mus musculus [13]): 47.3%
- Activity (Mus musculus [14]): 48.7%
- Activity (Mus musculus [15]): 54.9%
- Activity (Mus musculus [16]): 3
- Activity (Mus musculus [17]): 43.2%
- Activity (Mus musculus [18]): 44%
- Activity (Mus musculus [19]): 30.1%
- Activity (Mus musculus [20]): 36.9%
- Activity (Mus musculus [21]): 55.7%
- Activity (Mus musculus [22]): 39.4%
- Activity (Mus musculus [23]): 42.2%
- Activity (Mus musculus [24]): 32.4%
- Activity (Mus musculus [25]): Dde

- IC50 (RAW264.7 [1]): 4 µM
SMILES: COc1cc(OC)c2c(c1)C(=O)CC2c1ccccc1C (stereo not given)
- inhibition at 50 µM (RAW264.7 [2]): 77.6%

SMILES: COc1cc(OC)c2c(c1)C(=O)CC2c1ccc(Br)cc1 (stereo not given)
- inhibition at 50 µM (RAW264.7 [2]): -88.5%

SMILES: COc1cc(OC)c2c(c1)C(=O)CC2c1ccc(F)cc1 (stereo not given)
- inhibition at 50 µM (RAW264.7 [2]): -4.2%

- IC50 (RAW264.7 [1]): 51.5 µM
SMILES: COc1cc(OC)c2c(c1)C(=O)CC2c1ccc2cc(OC)ccc2c1 (stereo not given)
- inhibition at 50 µM (RAW264.7 [2]): 4.6%

Reference: ChEMBL document CHEMBL5154881, “Discovery of First-in-Class TAK1-MKK3 Protein-Protein Interaction (PPI) Inhibitor (R)-STU104 for the Treatment of Ulcerative Colitis through Modulating TNF-α Production” (J Med Chem, 2022)
